Data reported in PubChem BioAssay (NCI).
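96-well plates; 48 h exposure; 5 concentrations. Endpoints by linear interpolation between flanking doses. Not reached: highest tested concentration assigned. TGI: total growth inhibition.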

How the values were obtained:
Experiment in all cases: growth of human tumour cells (NCI), 48 h
RPMI-8226 leukemia = test system: RPMI-8226 leukemia
SF-295 CNS = test system: SF-295 CNS
CAKI-1 renal = test system: CAKI-1 renal
EKVX NSCLC = test system: EKVX NSCLC
NCI-H522 lung = test system: NCI-H522 lung
MDA-MB-231 breast = test system: MDA-MB-231 breast
LOX IMVI melanoma = test system: LOX IMVI melanoma
SNB-19 CNS = test system: SNB-19 CNS
ACHN renal = test system: ACHN renal
UACC-257 melanoma = test system: UACC-257 melanoma
UO-31 renal = test system: UO-31 renal
K-562 leukemia = test system: K-562 leukemia
IGROV1 ovarian = test system: IGROV1 ovarian
MDA-MB-435 = test system: MDA-MB-435
COLO 205 colon = test system: COLO 205 colon
HOP-92 NSCLC = test system: HOP-92 NSCLC
SK-OV-3 ovarian = test system: SK-OV-3 ovarian
RXF 393 renal = test system: RXF 393 renal
NCI-H226 lung = test system: NCI-H226 lung
SR leukemia = test system: SR leukemia
U251 CNS = test system: U251 CNS
SK-MEL-28 melanoma = test system: SK-MEL-28 melanoma
NCI-H460 lung = test system: NCI-H460 lung
BT-549 breast = test system: BT-549 breast
HOP-62 NSCLC = test system: HOP-62 NSCLC
UACC-62 melanoma = test system: UACC-62 melanoma
OVCAR-5 ovarian = test system: OVCAR-5 ovarian
TK-10 renal = test system: TK-10 renal
MALME-3M melanoma = test system: MALME-3M melanoma
DU-145 prostate = test system: DU-145 prostate
MDA-N = test system: MDA-N
SW-620 colon = test system: SW-620 colon
HT29 colon = test system: HT29 colon
MCF7 breast = test system: MCF7 breast
A498 renal = test system: A498 renal
PC-3 prostate = test system: PC-3 prostate
SN12C renal = test system: SN12C renal
OVCAR-4 ovarian = test system: OVCAR-4 ovarian
SK-MEL-5 melanoma = test system: SK-MEL-5 melanoma
SF-268 CNS = test system: SF-268 CNS
HCC-2998 colon = test system: HCC-2998 colon
OVCAR-3 ovarian = test system: OVCAR-3 ovarian
786-0 renal = test system: 786-0 renal
HCT-116 colon = test system: HCT-116 colon
HCT-15 colon = test system: HCT-15 colon
NCI-H23 lung = test system: NCI-H23 lung
HL-60(TB) leukemia = test system: HL-60(TB) leukemia
SK-MEL-2 melanoma = test system: SK-MEL-2 melanoma
CCRF-CEM leukemia = test system: CCRF-CEM leukemia
SF-539 CNS = test system: SF-539 CNS
A549 NSCLC = test system: A549 NSCLC
NCI/ADR-RES ovarian = test system: NCI/ADR-RES ovarian
T-47D breast = test system: T-47D breast
HS 578T breast = test system: HS 578T breast
SNB-75 CNS = test system: SNB-75 CNS
M14 melanoma = test system: M14 melanoma
OVCAR-8 ovarian = test system: OVCAR-8 ovarian
KM12 colon = test system: KM12 colon
MOLT-4 leukemia = test system: MOLT-4 leukemia

In the case of [N-]=[N+]=CC(=O)OC1CCc2ccccc21 (configuration not stated), the TGI (RPMI-8226 leukemia) is reported as > 100 µM, the TGI (SF-295 CNS) is reported as > 100 µM and the TGI (CAKI-1 renal) is reported as 52.5 µM. The TGI (EKVX NSCLC) was > 100 µM, the TGI (NCI-H522 lung) was > 100 µM and the TGI (MDA-MB-231 breast) was > 100 µM. For the same compound, the TGI (LOX IMVI melanoma) was > 100 µM, the TGI (SNB-19 CNS) was > 100 µM and the TGI (ACHN renal) was 30.3 µM. The TGI (UACC-257 melanoma) was > 100 µM, the TGI (UO-31 renal) was 29 µM and the TGI (K-562 leukemia) was > 100 µM. For the same compound, the TGI (IGROV1 ovarian) was > 100 µM, the TGI (MDA-MB-435) was > 100 µM and the TGI (COLO 205 colon) was > 100 µM. For the same compound, the TGI (HOP-92 NSCLC) was > 100 µM, the TGI (SK-OV-3 ovarian) was > 100 µM and the TGI (RXF 393 renal) was > 100 µM. For the same compound, the TGI (NCI-H226 lung) was > 100 µM, the TGI (SR leukemia) was > 100 µM and the TGI (U251 CNS) was > 100 µM. For the same compound, the TGI (SK-MEL-28 melanoma) was > 100 µM, the TGI (NCI-H460 lung) was > 100 µM and the TGI (BT-549 breast) was > 100 µM. For the same compound, the TGI (HOP-62 NSCLC) was > 100 µM, the TGI (UACC-62 melanoma) was > 100 µM and the TGI (OVCAR-5 ovarian) was > 100 µM. For the same compound, the TGI (TK-10 renal) was > 100 µM, the TGI (MALME-3M melanoma) was > 100 µM and the TGI (DU-145 prostate) was 48.7 µM. For the same compound, the TGI (MDA-N) was > 100 µM, the TGI (SW-620 colon) was > 100 µM and the TGI (HT29 colon) was > 100 µM. The TGI (MCF7 breast) was > 100 µM, the TGI (A498 renal) was > 100 µM and the TGI (PC-3 prostate) was > 100 µM. For the same compound, the TGI (SN12C renal) was > 100 µM, the TGI (OVCAR-4 ovarian) was > 100 µM and the TGI (SK-MEL-5 melanoma) was > 100 µM. For the same compound, the TGI (SF-268 CNS) was > 100 µM, the TGI (HCC-2998 colon) was > 100 µM and the TGI (OVCAR-3 ovarian) was > 100 µM. For the same compound, the TGI (786-0 renal) was > 100 µM, the TGI (HCT-116 colon) was > 100 µM and the TGI (HCT-15 colon) was > 100 µM. For the same compound, the TGI (NCI-H23 lung) was > 100 µM, the TGI (HL-60(TB) leukemia) was > 100 µM and the TGI (SK-MEL-2 melanoma) was > 100 µM.
For Cc1ccc(N/N=C/C2=CC(C)(C)C(C#N)(C#N)C(O)=C2C#N)cc1, the TGI (RPMI-8226 leukemia) was 93.7 µM, the TGI (SF-295 CNS) was > 100 µM and the TGI (CAKI-1 renal) was 69.5 µM. The TGI (CCRF-CEM leukemia) was > 100 µM, the TGI (EKVX NSCLC) was > 100 µM and the TGI (NCI-H522 lung) was > 100 µM. For the same compound, the TGI (MDA-MB-231 breast) was > 100 µM, the TGI (LOX IMVI melanoma) was > 100 µM and the TGI (SNB-19 CNS) was > 100 µM. The TGI (ACHN renal) was > 100 µM, the TGI (UACC-257 melanoma) was > 100 µM and the TGI (UO-31 renal) was > 100 µM. For the same compound, the TGI (K-562 leukemia) was > 100 µM, the TGI (IGROV1 ovarian) was > 100 µM and the TGI (SF-539 CNS) was > 100 µM. For the same compound, the TGI (MDA-MB-435) was > 100 µM, the TGI (A549 NSCLC) was > 100 µM and the TGI (NCI/ADR-RES ovarian) was > 100 µM. For the same compound, the TGI (COLO 205 colon) was > 100 µM, the TGI (HOP-92 NSCLC) was 42.2 µM and the TGI (SK-OV-3 ovarian) was > 100 µM. The TGI (RXF 393 renal) was 85.2 µM, the TGI (NCI-H226 lung) was > 100 µM and the TGI (T-47D breast) was > 100 µM. For the same compound, the TGI (SR leukemia) was 91.2 µM, the TGI (HS 578T breast) was > 100 µM and the TGI (SK-MEL-28 melanoma) was > 100 µM. For the same compound, the TGI (NCI-H460 lung) was > 100 µM, the TGI (SNB-75 CNS) was > 100 µM and the TGI (M14 melanoma) was > 100 µM. The TGI (OVCAR-8 ovarian) was > 100 µM, the TGI (HOP-62 NSCLC) was > 100 µM and the TGI (UACC-62 melanoma) was > 100 µM. The TGI (OVCAR-5 ovarian) was > 100 µM, the TGI (TK-10 renal) was > 100 µM and the TGI (MALME-3M melanoma) was > 100 µM. For the same compound, the TGI (DU-145 prostate) was > 100 µM, the TGI (KM12 colon) was > 100 µM and the TGI (MDA-N) was > 100 µM. The TGI (SW-620 colon) was > 100 µM, the TGI (HT29 colon) was > 100 µM and the TGI (MCF7 breast) was > 100 µM. For the same compound, the TGI (PC-3 prostate) was 58.7 µM, the TGI (SN12C renal) was > 100 µM and the TGI (OVCAR-4 ovarian) was > 100 µM. For the same compound, the TGI (SK-MEL-5 melanoma) was > 100 µM, the TGI (SF-268 CNS) was > 100 µM and the TGI (HCC-2998 colon) was > 100 µM. For the same compound, the TGI (OVCAR-3 ovarian) was > 100 µM, the TGI (MOLT-4 leukemia) was > 100 µM and the TGI (786-0 renal) was > 100 µM. For the same compound, the TGI (HCT-116 colon) was > 100 µM, the TGI (NCI-H23 lung) was > 100 µM and the TGI (HL-60(TB) leukemia) was 58.1 µM.
